According to patent publication US20260152527A1, “NOVEL MELANOCORTIN ANALOGS” (priority 2022, published 2026):
Values after ≈ are worked out from the molar mass of the structure shown. Positions of bridges follow the written chain, without caps; N, C: chain ends. Non-standard residues stand in square brackets, D forms with d. Residues, ends and D or L forms follow the SMILES beside them. Triazole bridges read from a SMILES are 1,4-linked. *: point of attachment. Benzoyl(3,5-(OH)2) = O=C(c1cc(O)cc(O)c1)*; Lys(N3) = [N-]=[N+]=NCCCC[C@H](N)C(=O)O; dPhe(4-F) = N[C@H](Cc1ccc(F)cc1)C(=O)O; Nle = CCCC[C@H](N)C(=O)O; Pra = C#CC[C@H](N)C(=O)O

Legend:
[1] = tested on: corneal edema following Descemetorhexis without Endothethelial Keratoplasty (DWEK) surgery; format: in vivo; conditions: rabbit
Experimental: To evaluate the efficacy of a peptide formulation in reducing corneal edema following Descemetorhexis without Endothethelial Keratoplasty (DWEK) surgery a study in rabbits was undertaken. […] A Table summarizing the parameters regarding the study is provided in FIGS. 5A-5B and a schematic exemplifying the timeline of the study is provided in FIG. 6.
Treatment was administered once (QD) or twice daily (BID) with approximately 6-8 hours between each BID dose for 28 days.
The rabbits were subjected to a surgical procedure prior to administering topical treatment. The animals received buprenorphine (0.01-0.05 mg/kg SC) and were sedated immediately prior to the procedure with ketamine/xylazine cocktail (20-50/4-10 mg/kg IM). Aseptic precautions were taken for the surgical procedure. […] Sterile eyewash was then used to irrigate the ocular surface of the left eye. […] The animal's corneal epithelium was marked with a circular ring (5 mm) to create a template for resection of the host tissue. […] Descemet's membrane was scored peripherally using a reverse Terry-Sinskey hook, and then Descemet's membrane was peeled from the overlying stroma. Descemet's membrane was removed using forceps. Viscoelastic was removed by Irrigation Aspiration (IA) using balanced salt saline (BSS). […]
In addition, tonometry was performed by a veterinary ophthalmologist or a trained technician. Intraocular pressure (IOP) was measured in both eyes of all animals at days 2, 4, 8, 15, 22, and 29. […] Six consecutive measurements were obtained and the average IOP shown on the display was recorded. Three independent measurements were obtained and recorded for each eye.
Pachymetry was also performed by a veterinary ophthalmologist or trained technician on days 2, 4, 8, 15, 22, and 29. Corneal thickness was measured in both eyes using an ultrasonic pachymeter. […]
Optical coherence tomography (OS only) was also measured in the animals. […]

[2] = rabbit
From the text: To evaluate the effects of the peptide formulations following topical administration and subconjunctival injection a study in rabbits was undertaken. Animals were acclimated to the study and, upon completion of the acclimation period, each animal was physically examined for determination of suitability for study participation. Animals determined to be in good health were randomized into study groups to achieve averaged mean body weight in each group. (N=24; 3 animals per study group) Animals will be uniquely identified by corresponding cage card number and ear tag.
For topical ocular dosing the designated peptide formulations (35 L) were administered to the eye of each animal using a calibrated pipette. With the animal manually restrained, the upper eyelid of the eye was gently elevated to expose the cornea. Treatment was then be applied to the cornea without contacting the eye with the pipette tip. One topical drop was applied per eye for four days. Tissue collection (aqueous humor) occurred 30 minutes after last dose.
A veterinary ophthalmologist performed complete ocular examinations using a slit lamp biomicroscope and indirect ophthalmoscope to evaluate ocular surface morphology and anterior and posterior segment inflammation on all animals prior to injection to serve as a baseline for enrollment into the study as well as on specific study days. Animals were not tranquilized for the examinations.
At least 1.0 mL of whole blood was drawn from the marginal ear vein or cardiac puncture (terminal bleed only) into K2EDTA tubes for plasma collection. After collection, the tubes were gently mixed by inverting the tubes 5-8 times. Blood samples were stored on wet ice prior to plasma processing. The samples were centrifuged at 4° C. for 10 minutes at 2000 g in a swinging bucket refrigerated centrifuge. Within 20 minutes of the blood collection time, the clear plasma was transferred to prelabelled polypropylene tubes, snap frozen, and stored frozen at approximately −80° C.
Following euthanasia, eyes were enucleated and marked at the 12:00 position. Aqueous humor was removed via a 27 or 30 gauge syringe following a 10-15 second rinse with PBS and blot with Kimwipe, and snap frozen by immersing in liquid nitrogen. The whole globe was then snap frozen in liquid nitrogen and stored at −80° C. to be held for potential dissection. All samples were placed into individual vials and weighed. The plasma and aqueous humor were collected.
The peptides were evaluated for their ocular tolerability and pharmacokinetics following repeated (QID×4 days) topical instillation or a single subconjunctival injection in rabbits. The study examined penetration into the anterior chamber and concentrations in the plasma by measuring at a single time point.

[3] = In vivo topical administration pharmacokinetics / tissue distribution of K173, rat; conditions: four days of BID topical dosing
Experimental: To evaluate the pharmacokinetics of the peptide formulations following topical administration a study in rats was undertaken.
Treatment was administered twice daily (BID) with approximately 6-8 hours between BID doses.
All animals underwent twice daily cage side clinical observations with particular attention paid to the eyes. Animals were not tranquilized for the examinations.
When animals were terminal, blood was collected by inserting a 25G needle into the heart and the animal was exsanguinated and the blood was collected into K2EDTA tubes for plasma collection. […] Once centrifuged, the clear plasma was transferred to a prelabelled polypropylene tube, snap frozen and stored at approximately −80° C.
Following euthanasia, eyes were enucleated and rinsed twice with fresh ice-cold PBS. […] The anterior segment and lens were removed and the neurosensory retina was dissected into pre-weighed 2 mL polypropylene tube, re-weighed and snap frozen. The brain was collected and weighted and the hypothalamus, hippocampus, and remining brain were dissected, placed in pre-weighted polypropylene tubes, re-weighed, and snap frozen. All tissues were stored at −80° C.
The concentrations of K173 in the aqueous humor, retina, hypothalamus, hippocampus, remaining brain tissue, and plasma was measured and the values are provided in Table 7.

human recombinant MC4R = target: T1, human recombinant MC4R (Homo sapiens, UniProt P32245); assay: Ca2+ signalling functional assay, MC4R stable cell line (CHO-K1/Gα15); format: cell-based
T1 construct: host or cells: CHO-K1/Gα15
Experimental: The Ca^2+ signalling functional assay was performed on a human recombinant MC4R stable cell line (CHO-K1/Gα15, GenScript). The cells were cultured at 37° C. and 5% CO2 with culture medium (90% Ham's F-12K (Kaighn's)+10% FBS+8 μg/mL Puromycin+100 μg/mL Hygromycin B). Cells were washed with PBS and then detached by incubation with 0.05% (w/v) Trypsin EDTA at 37° C. for 2-5 mins. Detached cells were suspended in Ham's F-12K (Kaighn's) (containing 10% FBS) and a 50 μL cell suspension was seeded into each well of a 384-well assay plate at a density of 15,000 cells/well. Cells were allowed to settle overnight at 37° C., 5% CO2. The next day, the assay plate was centrifuged and the media was replaced with dye (1×) in assay buffer (containing HBSS, HEPES 20 mM and probenecid 1 mM) and incubated for 1 h at 37° C. […] Then, 100 nL of compounds were transferred to the compound plate by the Echo machine. 30 μL assay buffer was added to the compounds plate and then shaken for 20 to 40 minutes. The plates were placed on the FLIPR and 15 μL of the compound was added to each well, then calcium flux signal was measured.

human recombinant MC1R = target: T2, human recombinant MC1R (Homo sapiens, UniProt Q01726); assay: cyclic AMP (cAMP) functional assay, MC1R stable cell line (CHO-K1); format: cell-based;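 note: cells with test compound for 60 min at room temperature in buffer containing IBMX, then cAMP quantified by Eu-cAMP tracer and ULight anti-cAMP detection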
T2 construct: host or cells: CHO-K1
Experimental: The cyclic AMP (cAMP) functional assay was performed on a human recombinant MC1R stable cell line (CHO-K1, GenScript). The cells were cultured at 37° C. and 5% CO2 with culture medium (90% Ham's F-12K (Kaighn's)+10% FBS+400 μg/mL G418). […] Then, 100 nL of compounds were transferred to the assay plate by the Echo machine. Cells were washed with PBS and then detached by incubation with 0.05% (w/v) Trypsin EDTA at 37° C. for 2 to 5 mins. Cells were collected with stimulation buffer (1×HBSS with 5 mM HEPES+0.2 mM IBMX+0.1% BSA) and 10 ul of cells (the density of 2,500 cells/well) solution was transferred to assay plate, centrifuged at 600 rpm for 3 min and then incubated with compounds at room temperature for 60 min. After that, 5 μL 4×Eu-cAMP tracer solution and 5 μL 4×ULight™-anti-cAMP solution was added into the cells, centrifuged at 600 rpm for 3 min and incubated for 60 min. The cAMP signal was detected with Envision® Multimode Plate Reader (PerkinElmer).

[4] = Thermodynamic solubility study in water; format: physicochemical; conditions: Table 8; read-out: Solubility
Experimental: The study was conducted in water. Water was added into compound powder to make a 10 mg/mL solution. Sample tubes were shaken at the vibrator for 1 hour (1000 rpm) and then equilibrated overnight at room temperature. Samples were centrifuged at 12000 rpm for 10 min to precipitate undissolved particles. Supernatants were transferred from tubes to a new plate. An aliquot of the supernatant after centrifugation was taken from each well, then analyzed by LC-MS/MS. The concentration of the supernatants was quantified by a standard curve.

T2 sequence (Q01726 whole entry): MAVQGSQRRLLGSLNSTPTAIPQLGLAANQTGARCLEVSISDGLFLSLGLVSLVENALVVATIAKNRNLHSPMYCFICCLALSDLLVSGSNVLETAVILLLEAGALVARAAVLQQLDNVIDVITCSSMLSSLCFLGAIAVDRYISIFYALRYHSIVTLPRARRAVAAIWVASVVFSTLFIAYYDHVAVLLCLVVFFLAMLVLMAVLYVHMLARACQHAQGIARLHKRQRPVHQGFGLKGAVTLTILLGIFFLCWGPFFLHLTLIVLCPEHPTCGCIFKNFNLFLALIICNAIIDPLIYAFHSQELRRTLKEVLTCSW
T1 sequence (P32245 whole entry): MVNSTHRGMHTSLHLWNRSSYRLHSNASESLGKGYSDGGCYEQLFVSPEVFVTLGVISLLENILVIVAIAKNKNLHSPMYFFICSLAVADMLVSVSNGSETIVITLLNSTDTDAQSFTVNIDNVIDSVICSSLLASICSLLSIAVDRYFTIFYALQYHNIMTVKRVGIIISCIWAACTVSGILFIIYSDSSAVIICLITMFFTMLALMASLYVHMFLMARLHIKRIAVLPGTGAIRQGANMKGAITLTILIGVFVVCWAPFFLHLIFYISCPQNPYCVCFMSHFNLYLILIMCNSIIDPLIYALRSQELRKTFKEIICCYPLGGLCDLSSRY

Compound: CCCC[C@H](NC(=O)c1cc(O)cc(O)c1)C(=O)N[C@H]1CCCCn2cc(nn2)C[C@@H](C(N)=O)NC(=O)[C@H](Cc2c[nH]c3ccccc23)NC(=O)[C@H](CCCNC(=N)N)NC(=O)[C@@H](Cc2ccc(F)cc2)NC(=O)[C@H](Cc2c[nH]cn2)NC1=O [KR-072, HyBA-Nle-[Lys(N3)-His-Dphe(4-F)-Arg-Trp-Pra]-NH2] ({Benzoyl(3,5-(OH)2)}-[Nle][Lys(N3)]H[dPhe(4-F)]RW[Pra]-NH2; triazole 2-7)
- corneal edema by stromal thickness measurements (OCT) ([1]; DWEK, topical 0.05, 0.1, 0.5 mg/mL QD vs vehicle): decrease corneal edema
- wound healing / rate of wound closure (corneal flat mount analysis) ([1]; topical 0.1 mg/mL): enhanced wound healing
- efficacy on corneal stromal thickness by OCT ([1]; two lowest treatment options 0.05 mg/mL or 0.1 mg/mL): Statistically significant efficacy
- Topical Ocular Permeability (nM ± SEM) [2]: 15.5 ± 2.6 nM
- K173 level in the neural retina [3]: high levels
- K173 presence in brain ([3]; hypothalamus, hippocampus, remaining brain): found in all parts of the brains
- EC50 (human recombinant MC4R): 98.6 nM
- EC50 (human recombinant MC1R): 0.0019 nM
- IC50 (human recombinant MC1R; cAMP functional assay): 1.9 pM
- solubility [4]: 6470 µg/mL (≈ 5.58 mM)
